Where two headings read alike, the source gives them in different places.
Tests used:
ERK = experiment: MAP kinase (ERK) activity in AR42J cells; assay type: cell-based, rat; settings: PKI 300 μM
Method: MAP Kinase Activity. After treatment, 60 mm dishes of 80% confluent cells were lysed at 4° C. in lysis buffer (in mM): 50 TRIS-HCl, PH 8, 150 NaCl, 5 EDTA, 1% NP-40, 0.25% sodium deoxycholate, 1 NaF, 10 sodium pyrophosphate, 0.1 PMSF, 1 sodium orthovanadate, 20 μg/ml aprotinin, and 10 μg/ml leupeptin. The cell lysate was clarified by centrifugation at 16,000×g at 4° C. for 20 min. The clarified cell lysate was immunoprecipitated overnight at 4° C., rotating with 4.5 μg of ERK1-CT antibody and 40 μl of packed protein G+protein A agarose resin (Oncogene Research Product, Cambridge, Mass.). The immune pellet was assayed for MAPK activity using MBP as the substrate. MBP (18.6 μg) was phosphorylated at 20° C. for 10 min in a final volume of 60 μl containing 20 mM Hepes, PH 7.4, 10 mM MgCl2, 1 mM DTT, 20 uM unlabeled ATP and 40 μCi (3,000 Ci/mmol) [^32P]-ATP. The reaction was terminated by the addition of 25 μl of 3× Laemmli sample buffer and heating at 70° C. for 10 min. MAPK activity was assessed by SDS-PAGE and auto-radiography. The autoradiograms were quantified by densitometry.

AR42J cells [1] = experiment: Immunoreactive insulin release from treated AR42J cells (RIA); assay type: cell-based, rat; settings: 200 μM PKI or PD98059 (50 μM)
Method: Measurement of immunoreactive insulin. AR42J cells were cultured as before in 12-well cluster plates. When cells reached 60% confluence, they were treated with GLP-1 for 3 days. At the beginning of the experiments, an aliquot of the medium was taken in order to assay the insulin accumulation in the medium. Then the cells were twice washed with Kreb's Ringer Balanced Buffer (KRBB) and incubated in the same buffer containing 10 mM glucose for another 1 h. The medium was collected and kept at −20° C. until insulin levels were assayed by RIA (See Example 1; Wang et al., Endocrinology, 1995). The cells were washed with PBS and detached with 0.25% typsin and 0.02% EDTA. The cell pellet was collected and lysed with formic acid for protein determination by the Bradford method (Bradford, 1976), using bovine-globulin as standard.

AR42J cells [2] = experiment: Immunocytochemistry of insulin- and glucagon-positive AR42J cells; assay type: cell-based, rat; settings: PD98059 50 μM or PKI 300 μM added concurrently with GLP-1
Method: Cell culture. AR42J cells were maintained in Dulbecco's modified Eagle's medium (DMEM) supplemented with 10% fetal calf serum (FBS), 100 IU/ml penicillin, 100 μg/ml streptomycin and 2 mM glutamine. Cells from passage 23–35 were used throughout this study. Cells were routinely plated at a density of about 10^5 cells/ml in 12-well cluster dishes or on coverslips and incubated in a humidified incubator at 37° C. with 95% air and 5% CO2.
Immunocytochemistry analysis. Cells were cultured on glass coverslips, washed with phosphate buffered saline (PBS) to remove serum, and fixed with 0.5% glutaraldehyde in PBS. Cells were permeabilized with 0.2% Triton X-100 for 5 min and the rest of the procedure was carried out at room temperature in a humidified chamber. Suction was used to remove reagents between each step but drying of specimens was avoided. Sufficient reagent was used to cover each specimen (approximately 1 or 2 drops was usually adequate). The coverslips were incubated in 0.3% H2O2 in PBS for 30 min to quench endogenous peroxidase activity and washed in PBS×3 times, followed by incubation with 2% goat serum in PBS for 30 min to block non-specific binding of IgG. Excess serum was removed by blotting. The specific primary polyclonal antisera (anti-insulin 1:300; anti-glucagon 1:300) were used. Antibody was diluted in PBS containing 1% goat serum. This was applied to the coverslip and incubated at room temperature for 1 h. The coverslips were washed ×3 times in PBS, each time for 5 min, then incubated with biotinylated second antibody for 1 h and washed ×3 times with PBS. Avidin-biotin-peroxidase complex in PBS was applied for 30 min. Immunoperoxidase labeling was performed with a Vectostain ABC kit (Vector Labs, Burlingame, Calif.). After extensive washing in PBS for 4–5 times (each 5 min), the coverslips were incubated in diaminobenzidine tetrahydrochloride (DAB) in PBS, with 0.01% hydrogen peroxide for 3 min. The reaction was stopped by washing the coverslips in PBS and examined under a light microscope. To confirm specific staining, samples incubated with preabsorbed primary antibody were used as negative control, and the insulin producing cell line RIN 1046-38 cells were used as positive control for our experiments. The avidin-biotin-peroxidase (ABC) procedure was performed according to methods known in the art (Hsu et al., 1981).

AR42J cells [3] = experiment: Amylase release from AR42J cells; assay type: cell-based, rat; settings: for effect on CCK-induced amylase release: combined with CCK (1 nM), genestein 300 μM
Method: Cell Culture. AR42J cells were maintained in Dulbecco's modified Eagle's medium (Gibco, Grand Island, N.Y.) (DMEM) supplemented with 10% Fetal Calf Serum, 100 IU/ml penicillin, 100 μg/ml streptomycin and 2 mM glutamine. Cells from passage 23–36 were used throughout this study.
Amylase Assay. For amylase secretion, cells were washed free of medium with 2 ml phosphate buffered saline (PBS). Incubation was then carried out in DMEM containing 15 mM HEPES, 0.2% bovine serum albumin (BSA) and 0.01% soybean trypsin inhibitor. The hormones and reagents of interest were added for 50 min at 37° C. The incubation medium was then immediately removed for amylase determination and the cells were again washed in 2 ml ice-cold PBS. […] The released amylase was expressed as the percentage of the total amylase activity of the cells.

AR42J cells [4] = experiment: Protein tyrosine phosphorylation in AR42J cells; assay type: cell-based, rat; settings: 5 min treatment
Method: Tyrosine Phosphorylation Studies. […] Then the medium was removed and fresh KRBB was added, followed by placing the cell on a 37° C. hot plate for 5 min. After addition of various reagents (see FIG. 24) for 5 min the reaction was terminated by submersion of the dishes in liquid nitrogen. The frozen cells were scraped and lysed in RIPA buffer. […] The blots were developed using the ECL chemiluminescence detection system (Amersham).

AR42J cells [5] = experiment: Intracellular cAMP in AR42J cells; assay type: cell-based, rat; settings: for intracellular cAMP levels: 1 h, GLP-1 0.1 to 100 nM, IBMX 100 nM, CCK 0.1 to 100 nM, exendin-4 0.1 to 10 nM
Method: Measurement of cAMP. Cells were grown in 12-well dishes and treated with hormones and reagents±IBMX as described above. They were then washed 3 times in ice-cold PBS and lysed with 1 ml ice-cold […] perchloric acid. The lysates (950 μl) were transferred to microcentrifuge tubes and the pH adjusted to 7.0 using 5 M K2CO3. After centrifugation for 5 min at 10^4 rpm, the supernatant was vacuum dried, and then recovered in 200 μl Tris/EDTA buffer. After addition of 0.15 mM Na2CO3 (50 μl) and 0.15 mM ZnSO^4 (50 μl), followed by incubation for 15 min on ice, the salt precipitate was removed by centrifugation for 15 min at 3.5×10^3 rpm and 50 μl of supernatant was assayed using a cAMP [^3] assay kit (Amersham Corp., Arlington Heights, Ill.), (Steiner et al., 1972).

AR42J cells [6] = experiment: Amylase content and CCK response of AR42J cells after 72 h treatment; assay type: cell-based, rat; settings: dexamethasone 72 h
Method: Amylase Assay. For amylase determination, cells were washed free of medium with 2 ml PBS. Incubation was then carried out in DMEM containing 15 mM HEPES, 0.2% BSA and 0.01% soybean trypsin inhibitor. CCK (1 nM) was added for 50 min at 37° C. The incubation medium was then immediately removed for amylase determination and the cells were again washed in 2 ml ice-cold PBS. Lysate buffer containing (in mM) 130 Tris-HCl, 10 CaCl2, 75 NaCl, and 0.2% Triton X-100 (pH 8.0) was added to the cells and the lysates were then collected for total amylase (Ceska et al., 1969). The released amylase was expressed as the percentage of the total amylase in the cells.

rat acinar cells = settings: CCK alone vs 10^−8 M exendin-4 and CCK together; Malhotra et al. 1992; cited from earlier work
AR42J cells [7] = experiment: Intracellular calcium in single AR42J cells (indo-1); assay type: cell-based, rat; settings: for AR42J cells showing [Ca2+]i response: CCK 1 nM
Method: Measurement of intracellular calcium, [Ca^2+]l. AR42J cells were loaded with the fluorescent Ca^2+ probe, indo-1 acetoxymethyl ester (indo-1/AM). […] Both loading with indo-1 and the experiments were carried out at room temperature (22–24° C.). […] The emission field was restricted to a single cell. Indo-1 was excited at 350±5 nm every 5 ms, and the fluorescence emission was split into wavelength bands of 410±5 and 490±5 nm. […] The cell autofluorescence was assessed in a large number of indo-1 non-loaded cells from the same batch. […] Routinely, the cells were exposed to the test solution for 240–300s. Thereafter, the test solution was washed out, while [Ca^2+]l was monitored for additional 120–180s. The test solutions were prepared just prior to the experiment by adding the hormones in standard bathing solution.

[8] = 50 min, glucagon 10 or 100 nM, GLP-1 10 nM, insulin 100 nM, 8-Br-cAMP 100 nM, vanadate 1 mM

In the case of `CCCCCCCCCCCCCCCCOCC(CO)OC` (racemic) [PKI, 1-o-Hexadecyl-2-o-methyl-rac-glycerol, reference compound], the “MAPK activity with inhibitor alone” value (ERK) is reported as “decreased MAPK activity to less than that of control cells”, the “insulin secretion of GLP-1-treated cells in presence of inhibitor” value (AR42J cells [1]) is reported as “barely detected” and the “effect on GLP-1-induced conversion of AR42J cells” value (AR42J cells [2]) is reported as “conversion of the cells did not occur”.

For `O=c1c(-c2ccc(O)cc2)coc2cc(O)cc(O)c12` [Genestein], the “effect on CCK-induced amylase release” value (AR42J cells [3]; vanadate 1 mM) was “decreased” and the “effect on protein tyrosine phosphorylation” value (AR42J cells [4]) was “decreased tyrosine phosphorylations induced by CCK”.

With `CC(C)Cn1c(=O)n(C)c(=O)c2[nH]cnc21` [IBMX] the “intracellular cAMP levels” value (AR42J cells [5]) was “not altered”.

For `[F-].[Na+]` [NaF, sodium fluoride], the “effect on amylase release when given alone” value (shortened to “effect on amylase release”) (AR42J cells [3]; [8]) was “did like-wise” and the “effect on protein tyrosine phosphorylation” value (AR42J cells [4]) was “increased”.

In the case of `COc1cccc(-c2cc(=O)c3ccccc3o2)c1N` [PD98059, reference compound], the “insulin secretion of GLP-1-treated cells in presence of inhibitor” value (AR42J cells [1]) is reported as “barely detected” and the “effect on GLP-1-induced conversion of AR42J cells” value (AR42J cells [2]) is reported as “conversion of the cells did not occur”.

For `C[C@@H]1C[C@H]2[C@@H]3CCC4=CC(=O)C=C[C@]4(C)[C@@]3(F)[C@@H](O)C[C@]2(C)[C@@]1(O)C(=O)CO` [dexamethasone, reference compound], the “increase in amylase content vs non-dexamethasone-treated cells” value (AR42J cells [6]) was 6.6 fold and the “amylase content of cells” value (AR42J cells [6]; non-treated cells 1.88 U/l) was 12.57 U/l.

For `[O]=[V]([O-])([O-])[O-]` [vanadate], the “effect on amylase release” value (AR42J cells [3]) was “increased significantly” and the “effect on CCK-induced amylase release” value (AR42J cells [3]; vanadate 1 mM) was “increased significantly”.

With “CCK: Cholecytokinin, stimulus of amylase release, from Sigma” the “concentration of maximum stimulation of amylase release” value (AR42J cells [3]; 50 min, dexamethasone-induced AR42J cells) was 10 nM, the “effect on amylase release” value (AR42J cells [3]; [8]) was “potent stimulus of amylase release” and the “intracellular cAMP levels” value (AR42J cells [5]) was “not altered”. For the same molecule, the total amylase released (rat acinar cells) was 12%, the “peak [Ca2+]i amplitude, increase over resting indo-1 fluorescence ratio (IFR)” value (AR42J cells [7]; single cells) was 2.5–3.5 fold and the “AR42J cells showing [Ca2+]i response” value (AR42J cells [7]; single cells, glucagon 10 nM) was 85%. The “increase in tyrosine phosphorylation levels of 46, 66, 120 and 190 kDa proteins” value (AR42J cells [4]) was no less than 2 fold.

With glucagon: islet hormone, from Bachem the “effect on amylase release” value (AR42J cells [3]; [8]) was “no effect”, the “effect on CCK-induced amylase release” value (AR42J cells [3]; vanadate 1 mM) was “inhibited, but did not fully abolish” and the “increase in cAMP levels” value (AR42J cells [5]; glucagon 10 nM, presence and absence of CCK) was 2 fold. The “peak [Ca2+]i transient as percent of resting IFR level” value (AR42J cells [7]; glucagon 10 nM) was 200–250%, the “effect on time course of CCK-induced [Ca2+]i transients” value (AR42J cells [7]; glucagon 10 nM, 8-bromo-cAMP 0.1 μM for 60–300 sec) was “attenuated rate of rise and a very slow rate of relaxation” and the “AR42J cells showing [Ca2+]i response” value (AR42J cells [7]; single cells, glucagon 10 nM) was 70%.

With insulin: islet hormone, from Sigma the “effect on amylase release” value (AR42J cells [3]; [8]) was “did not influence amylase release”, the “effect on CCK-induced amylase release” value (AR42J cells [3]; vanadate 1 mM) was “did not influence amylase release” and the “basal or CCK (1 nM)-induced amylase release after pre-incubation” value (AR42J cells [3]; pre-incubation 8, 24, 48 or 72 h with GLP-1 (10 nM) and insulin (100 nM)) was “did not increase”. For the same molecule, the “effect on protein tyrosine phosphorylation” value (AR42J cells [4]) was “increased phosphorylation of 97 kDa band”.

Source: US7056734B1, “Differentiation of non-insulin producing cells into insulin producing cells by GLP-1 or exendin-4 and uses thereof” (The United States of America as represented by the …, priority 1998, dated 2006)
